{"source": "patent US8324151B2", "about": "“Treatment of sepsis and septic shock using ghrelin and growth hormone” (The Feinstein Institute for Medical Research, priority 2007, dated 2012)", "key": {"[1]": {"tested_on": "24-month-old (aged) rats with LPS injection", "assay": "LPS-induced endotoxemia in aged rats treated with GH with or without ghrelin", "format": "in vivo, rat", "conditions": "4 h after LPS 15 mg/kg BW, ghrelin 20 nmol/kg BW and/or GH 25 μg/kg BW bolus 30 min prior to LPS", "protocol": "To determine whether GH sensitizes Ghrelin's anti-inflammatory effects, GH was administered (25 μg/kg BW, a bolus at 30 min prior to LPS injection) with or without ghrelin (20 nmol/kg BW, a bolus at 30 min prior to LPS injection) in 24-month-old (aged) rats with LPS injection (15 mg/kg BW). […] Similarly, organ injury indicators such as AST and ALT were attenuated only following co-administration of ghrelin and GH after LPS injection in aged animals (FIG. 9C-D)."}, "brain ghrelin receptor": {"tested_on": "brain ghrelin receptor", "assay": "Effect of GH on central ghrelin receptor expression and parasympathetic neuronal activity", "format": "in vivo", "conditions": "no data given"}, "[2]": {"tested_on": "rats exposed to whole body irradiation followed by CLP", "assay": "Radiation combined injury (RCI): 5-Gy whole body irradiation followed by CLP", "format": "in vivo, rat", "protocol": "Rats were exposed to 5-Gy whole body irradiation followed by cecal ligation and puncture (CLP) 48 h thereafter. Human ghrelin (30 nmol) or vehicle (saline) was infused for 68 h after radiation exposure. At 20 h post-CLP, circulating tissue injury markers were measured. A 10-day survival study was also performed."}, "[3]": {"tested_on": "male 3-month-old (young) rats subjected to sepsis by CLP", "format": "in vivo", "protocol": "Protective effects of ghrelin in young septic animals: This study was designed to determine whether ghrelin by itself can attenuate sepsis-induced inflammatory responses, cardiovascular responses, tissue injury, and mortality in young animals. To study this, male 3-month-old (young) rats were subjected to sepsis by CLP. At 5 h after CLP, a bolus IV injection of ghrelin (6 nmol/kg BW) was followed by a continuous infusion of ghrelin (40 nmol/kg BW) via a primed 200-μl Alzet mini-pump for 15 h. 20 h after CLP (i.e., severe sepsis), plasma levels of TNF-α, IL-6, and HMGB-1 were determined. Cardiac output (CO), stoke volume (SV), total peripheral resistance (TPR), and organ blood flow (BF) were measured using radioactive microspheres. Moreover, tissue injury indicators such as plasma levels of lactate and creatinine, as well as lung water content (edema) were determined. In additional groups of animals, the necrotic cecum was excised at 20 h after CLP, and a 10-day survival was recorded. […] Thus, ghrelin may provide a novel approach for anti-sepsis therapy in the young population. […] This also confirms that ghrelin can cross the blood-brain barrier to produce its beneficial effect centrally, thus reducing proinflammatory cytokines in sepsis. […] Plasma levels of TNF-α were measured at 1 h after LPS injection. […] However, due to the presence of central ghrelin hyporesponsiveness in aged animals, it is most likely that treatment with ghrelin alone will not produce desirable beneficial results in the geriatric population."}, "[4]": {"tested_on": "male 3-month-old (young) rats subjected to sepsis by CLP", "conditions": "sepsis in young animals; Wu et al., 2004; cited from earlier work"}, "[5]": {"tested_on": "young rats with LPS injection", "assay": "ICV administration of ghrelin prior to IV LPS injection (endotoxemia)", "conditions": "ghrelin 3 nmol/kg BW ICV 30 min prior to IV LPS 15 mg/kg BW; 1 h after LPS"}, "[6]": {"conditions": "20 h after CLP, ghrelin 6 nmol/kg BW IV bolus at 5 h + 40 nmol/kg BW infusion for 15 h"}, "[7]": {"conditions": "20 h after CLP, radioactive microspheres"}, "[8]": {"conditions": "plasma, 20 h post-CLP, human ghrelin 30 nmol infused for 68 h after radiation, Mean ± SE, n = 4-6/group"}}, "note": "Ends that are not written are not given here. * marks the point of attachment. Octanoyl = CCCCCCCC(=O)*"}
{"substance": "GH: Growth hormone; a ghrelin-sensitizing agent; preferred human forms SEQ ID NO:2-4", "values": [{"measurement": "plasma levels of IL-6", "setting": "[1]", "result": "neither ghrelin nor GH alone significantly decreased"}, {"measurement": "plasma levels of TNF-α", "setting": "[1]", "result": "neither ghrelin nor GH alone significantly decreased"}, {"measurement": "brain ghrelin receptor expression", "setting": "brain ghrelin receptor; aged animals (heading of b67)", "result": "increases"}, {"measurement": "parasympathetic neuronal activity", "setting": "brain ghrelin receptor", "result": "increases"}]}
{"substance": "Human ghrelin: Human ghrelin; preferably GSSFLSPEHQRVQQRKESKKPPAKLQPR, S at position 3 n-octanoylated serine (SEQ ID NO:1) (GSS(Octanoyl)FLSPEHQRVQQRKESKKPPAKLQPR; listed as Homo sapiens)", "values": [{"measurement": "survival", "setting": "[2]; 10-day survival after RCI, vehicle 38%", "result": 69, "unit": "%"}, {"measurement": "decrease of the elevated injury markers in plasma", "setting": "[2]; vs. RCI + vehicle, 20 h post-CLP", "result": "41-59%"}]}
{"substance": "ghrelin: Endogenous ligand for the growth hormone secretagogue receptor; species form used in the LPS and CLP studies not stated (GSSFLSPEHQRVQQRKESKKPPAKLQPR; ends and bridges not checked; UniProt Q9UBU3 24-51, looked up)", "values": [{"measurement": "plasma levels of IL-6", "setting": "[1]", "result": "neither ghrelin nor GH alone significantly decreased"}, {"measurement": "plasma levels of TNF-α", "setting": "[1]", "result": "neither ghrelin nor GH alone significantly decreased"}, {"measurement": "survival of septic animals", "setting": "[3]; 10-day survival, necrotic cecum excised at 20 h after CLP, control 35%, n=20/group", "result": 65, "unit": "%"}, {"measurement": "lung edema (lung water content)", "setting": "[3]; 20 h after CLP", "result": "decreased"}, {"measurement": "plasma creatinine", "setting": "[3]; 20 h after CLP", "result": "decreased"}, {"measurement": "plasma lactate", "setting": "[3]; 20 h after CLP", "result": "decreased"}, {"measurement": "cytokine levels in peritoneal fluid", "setting": "[3]; 20 h after CLP, data not shown", "result": "markedly reduced"}, {"measurement": "plasma levels of HMGB-1", "setting": "[3]; [6]", "result": "significantly reduced"}, {"measurement": "plasma levels of IL-6", "setting": "[3]; [6]", "result": "significantly reduced"}, {"measurement": "plasma levels of TNF-α", "setting": "[3]; [6]", "result": "significantly reduced"}, {"measurement": "cardiac output (CO)", "setting": "[3]; [7]", "result": "increased"}, {"measurement": "organ blood flow in the gut", "setting": "[3]; [7]", "result": "increased"}, {"measurement": "organ blood flow in the kidneys", "setting": "[3]; [7]", "result": "increased"}, {"measurement": "organ blood flow in the liver", "setting": "[3]; [7]", "result": "increased"}, {"measurement": "stroke volume (SV)", "setting": "[3]; [7]", "result": "increased"}, {"measurement": "total peripheral resistance (TPR)", "setting": "[3]; [7]", "result": "reduced"}, {"measurement": "brain ghrelin levels", "setting": "[3]; rat, in vivo, iv", "result": "restored the reduced brain ghrelin levels"}, {"measurement": "Gut MPO", "setting": "[2]; 20 h post-CLP, human ghrelin 30 nmol infused for 68 h after radiation, Mean ± SE, n = 4-6/group", "result": "14.0 ± 1.1", "unit": "μU/mg"}, {"measurement": "ALT", "setting": "[2]; [8]", "result": "42.3 ± 5.4", "unit": "IU/L"}, {"measurement": "AST", "setting": "[2]; [8]", "result": "70.7 ± 70.3", "unit": "IU/L"}, {"measurement": "Creatinine", "setting": "[2]; [8]", "result": "1.60 ± 0.20", "unit": "mg/dL"}, {"measurement": "IL-6", "setting": "[2]; [8]", "result": "817 ± 88", "unit": "pg/mL"}, {"measurement": "LDH", "setting": "[2]; [8]", "result": "1098 ± 88", "unit": "U/L"}, {"measurement": "Lactate", "setting": "[2]; [8]", "result": "19.4 ± 0.8", "unit": "mg/dL"}, {"measurement": "TNF-α", "setting": "[2]; [8]", "result": "41.8 ± 8.5", "unit": "pg/mL"}, {"measurement": "circulating proinflammatory cytokines such as TNF-α and IL-6", "setting": "[4]", "result": "significantly decreases"}, {"measurement": "reduction of serum levels of TNF-α", "setting": "[5]", "result": 65, "unit": "%"}]}
